IC50 data for nine compounds are collected here from patent US6420558B1, “Aminopiperidine derivates as integrin αvβ3 antagonists” (Meiji Seika Kaisha, Ltd., priority 1998, dated 2002).

Each structure is given as a SMILES string.

Assay [1] has as its target GP IIb/IIIa (Homo sapiens, UniProt P05106+P08514). The experiment in a line: GP IIb/IIIa antagonistic activity (method of Pharmacological Test 2 in WO 94/21599). In kind it is binding. How it is done:
(§1) GP IIb/IIIa Antagonistic Activity and Human Platelet Aggregation Inhibitory Activity
GP IIb/IIIa antagonistic activity was measured for the compounds according to the present invention. The measurement of the GP IIb/IIIa antagonistic activity was carried out according to the method described in Pharmacological Test 2 in WO 94/21599.

Assay [2] deals with human platelet aggregation. The assay is described as follows: Human platelet aggregation inhibitory activity (method of Pharmacological Test 1 in WO 94/21599). In kind it is cell-based. The settings on record: human platelets, read-out: inhibition of human platelet aggregation, IC5. value. The procedure: as §1
Human platelet aggregation inhibitory activity was measured for the compounds according to the present invention. The measurement of the human platelet aggregation activity was carried out according to the method described in Pharmacological Test 1 in WO 94/21599.

Assay [3] has as its target T1, integrin αvβ3 (vitronectin receptor purified from the human placenta) (Homo sapiens, UniProt P05106+P06756).
T1 construct: a vitronectin receptor (protein content: 118 μg/ml) purified from the human placenta; from tissue; host or cells: human placenta
The experiment in a line: αvβ3 binding assay (vitronectin-vitronectin receptor binding assay). The settings on record: vitronectin binding to human placenta vitronectin receptor; read-out: integrin αvβ3 antagonistic activity, IC50 value. The procedure:
Integrin αvβ3 antagonistic activity was measured for the compounds according to the present invention in a vitronectin-vitronectin receptor binding assay system in accordance with the method of Kouns et al. (W. C. Kouns, D. Kirchhofer, P. Hadvary, A. Edenhofer, T. Weller, G. Pfenninger, H. R. Baumgartner, L. K. Jennings and B. Steiner, Blood, 80, 2539-2547 (1992)).
Specifically, a vitronectin receptor (protein content: 118 μg/ml) purified from the human placenta in accordance with the method of Pytela et al. (R. Pytela, M. D. Pierschbacher, S. Argraves, S. Suzuki, and E. Ruoslahti, Method in Enzymology, 144, 475-489 (1987)) was diluted 50 times with TBS (20 mM Tris-HCl, 150 mM NaCl, 1 mM CaCl2, 1 mM MgCl2, pH 7.4), and distributed and coated on wells (50 μl/well) of a plate (Maxisorp, Nunc, 96 well Immuno Plate). The plate was then allowed to stand at 4° C. for 1 day, washed twice with TBS (200 μl/well), and then subjected to blocking with TBS (150 μl/well) containing 1% bovine serum albumin (SIGMA) at 4° C. overnight. After washing twice with TBS (200 μl/well), 50 μl of vitronectin (CALBIOCHEM) adjusted to 0.2 μg/ml by the addition of TBS (TBS-Tween) containing 0.01% Tween-20 was mixed with 50 μl of each test compound adjusted to each concentration in wells, and a reaction was allowed to proceed at room temperature for 4 hr. After the completion of the reaction, the wells were washed five times with TBS-Tween. A solution prepared by diluting anti-vitronectin rabbit antiserum (CHEMICON) 500 times with TBS-Tween was added as a primary antibody in an amount of 50 μl/well, and a reaction was allowed to proceed at room temperature for 1.5 hr. After washing five times with 200 μl/well of TBS-Tween, a peroxidase (POD)-labeled anti-rabbit IgG antibody solution (CAPPEL) diluted 500 times with TBS-Tween was added as a secondary antibody in an amount of 50 μl/well, and a reaction was allowed to proceed at room temperature for 1.5 hr. After washing five times with TBS-Tween (200 μl/well), ABTS (2,2′-azino-bis(3-ethylbenzthiazoline-6-sulfonic acid), SIGMA) was adjusted to 1 mg/ml by the addition of a ten-fold diluted POD-buffer (ZYMED), and added in an amount of 50 μl/well, and a reaction was allowed to proceed for 5 to 10 min. A 0.1 M citric acid buffer (pH 4.3) containing 0.05% NaN3 was added in an amount of 50 μl/well to stop the reaction, followed by the measurement of the absorbance at 415 nm with a microplate reader (MTP 32, Corona Electric) (reference: 675 nm). The total binding was defined as the absorbance after a reaction using 50 μl of TBS-Tween instead of the test compound, and the non-specific binding (100% inhibition) was defined as the absorbance after a reaction using 50 μl of TBS-Tween containing 2×10^−3 M RGDS. The inhibition was calculated by the following equation: [formula]
(§2) IC50 was determined from a primary regression line of the logarithm of each concentration of the test compound and the logarithm of (100−inhibition)/inhibition.

For assay [4], the target named is T2, integrin α5β1 (fibronectin receptor purified from the human placenta) (Homo sapiens, UniProt P05556+P08648).
T2 construct: a fibronectin receptor (protein content: 52.1 μg/ml) purified from the human placenta; from tissue; host or cells: human placenta
The experiment in a line: α5β1 binding assay (fibronectin-fibronectin receptor binding assay). The following applies: fibronectin binding to human placenta fibronectin receptor; read-out: α5β1 Binding inhibitory activity. The procedure: Integrin α5β1 antagonistic activity (lethality) was measured for the compounds according to the present invention in a fibronectin-fibronectin receptor binding assay system in accordance with the method of Kouns et al. (W. C. Kouns, D. Kirchhofer, P. Hadvary, A. Edenhofer, T. Weller, G. Pfenninger, H. R. Baumgartner, L. K. Jennings, and B. Steiner, Blood, 80, 2539-2547 (1992)).
Specifically, a fibronectin receptor (protein content: 52.1 μg/ml) purified from the human placenta by the method of Pytela et al. (R. Pytela, M. D. Pierschbacher, S. Argraves, S. Suzuki, and E. Ruoslahti, Method in Enzymology, 144, 475-489 (1987)) was diluted 25 times with TBS (20 mM Tris-HCl, 150 mM NaCl, 1 mM CaCl2, 1 mM MgCl2, pH 7.4), and distributed and coated on wells (50 μl/well) of a plate (Maxisorp, Nunc, 96 well Immuno Plate). The plate was then allowed to stand at 4° C. for one day, washed twice with TBS (200 μl/well), and then subjected to blocking with TBS (150 μl/well) containing 3% skim milk (DIFCO) at 4° C. overnight. After washing twice with TBS (200 μl/well) containing 0.05% Tween-20 and then washing twice with TBS (200 μl/well), purification was carried out according to the method of E. Engvall et al. (E. Engvall, E. Ruoslahti, and E. J. Miller, J. Exp. Med., 147, 1584-1595 (1978)), and 50 […] of fibronectin adjusted to 0.2 μg/ml by the addition of TBS (TBS-Tween) containing 0.01% Tween-20 was mixed with 50 μl of each test compound adjusted to each concentration in the wells, and a reaction was allowed to proceed at room temperature for 3 hr. After the completion of the reaction, the wells were washed five times with TBS-Tween. A solution prepared by diluting a peroxidase-labeled fibronectin antibody (CAPPEL) 500 times with TBS-Tween was added in an amount of 50 μl per well, and a reaction was allowed to proceed at room temperature for 1.5 hr. After washing five times with TBS-Tween (200 μl/well), ABTS (SIGMA) adjusted to 1 mg/ml by the addition of a ten-fold diluted POD-buffer (ZYMED) was added in an amount of 50 μl/well, and a reaction was allowed to proceed for 5 to 10 min. A 0.1 M citric acid buffer (pH 4.3) containing 0.05% NaN3 was added in an amount of 50 μl/well to stop the reaction, followed by the measurement of the absorbance at 415 nm with a microplate reader (MTP 32, Corona Electric) (reference: 675 nm). The total binding was defined as the absorbance after a reaction using 50 μl of TBS-Tween instead of the test compound, and the non-specific binding (100% inhibition) was defined as the absorbance after a reaction using 50 μl of TBS-Tween containing 2×10^−3 M RGDS. The inhibition was calculated by the following equation: [formula]
as §2

T1 sequence (P06756 31-889 limits assumed): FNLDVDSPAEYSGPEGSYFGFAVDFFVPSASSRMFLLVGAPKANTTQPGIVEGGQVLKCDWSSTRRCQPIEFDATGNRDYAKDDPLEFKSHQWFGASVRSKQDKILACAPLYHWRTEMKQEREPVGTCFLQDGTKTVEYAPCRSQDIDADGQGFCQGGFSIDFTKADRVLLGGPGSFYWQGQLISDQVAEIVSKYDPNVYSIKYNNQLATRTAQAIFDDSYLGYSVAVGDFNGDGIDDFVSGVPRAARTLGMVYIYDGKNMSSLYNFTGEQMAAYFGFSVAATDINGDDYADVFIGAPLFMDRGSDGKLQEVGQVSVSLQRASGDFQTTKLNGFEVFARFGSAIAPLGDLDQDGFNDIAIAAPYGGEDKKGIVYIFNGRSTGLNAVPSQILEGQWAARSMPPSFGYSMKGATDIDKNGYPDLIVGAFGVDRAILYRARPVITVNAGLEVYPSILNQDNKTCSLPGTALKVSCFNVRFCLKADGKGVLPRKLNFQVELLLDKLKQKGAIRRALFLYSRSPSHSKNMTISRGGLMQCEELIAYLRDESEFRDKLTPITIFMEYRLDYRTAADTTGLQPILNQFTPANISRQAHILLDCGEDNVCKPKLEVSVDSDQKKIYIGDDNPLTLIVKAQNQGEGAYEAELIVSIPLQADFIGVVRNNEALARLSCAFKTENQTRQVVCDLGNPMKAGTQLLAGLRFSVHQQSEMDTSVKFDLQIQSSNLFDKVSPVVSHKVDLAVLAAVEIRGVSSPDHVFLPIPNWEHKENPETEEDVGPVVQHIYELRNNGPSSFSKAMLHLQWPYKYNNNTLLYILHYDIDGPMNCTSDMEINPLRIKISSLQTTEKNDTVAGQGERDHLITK
T1 sequence (P06756 891-1048 limits assumed): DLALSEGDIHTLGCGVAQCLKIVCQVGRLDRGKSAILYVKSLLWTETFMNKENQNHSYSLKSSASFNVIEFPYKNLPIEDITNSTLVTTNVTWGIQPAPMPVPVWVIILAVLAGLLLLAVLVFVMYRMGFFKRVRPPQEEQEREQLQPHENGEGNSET
T1 sequence (P05106 27-788): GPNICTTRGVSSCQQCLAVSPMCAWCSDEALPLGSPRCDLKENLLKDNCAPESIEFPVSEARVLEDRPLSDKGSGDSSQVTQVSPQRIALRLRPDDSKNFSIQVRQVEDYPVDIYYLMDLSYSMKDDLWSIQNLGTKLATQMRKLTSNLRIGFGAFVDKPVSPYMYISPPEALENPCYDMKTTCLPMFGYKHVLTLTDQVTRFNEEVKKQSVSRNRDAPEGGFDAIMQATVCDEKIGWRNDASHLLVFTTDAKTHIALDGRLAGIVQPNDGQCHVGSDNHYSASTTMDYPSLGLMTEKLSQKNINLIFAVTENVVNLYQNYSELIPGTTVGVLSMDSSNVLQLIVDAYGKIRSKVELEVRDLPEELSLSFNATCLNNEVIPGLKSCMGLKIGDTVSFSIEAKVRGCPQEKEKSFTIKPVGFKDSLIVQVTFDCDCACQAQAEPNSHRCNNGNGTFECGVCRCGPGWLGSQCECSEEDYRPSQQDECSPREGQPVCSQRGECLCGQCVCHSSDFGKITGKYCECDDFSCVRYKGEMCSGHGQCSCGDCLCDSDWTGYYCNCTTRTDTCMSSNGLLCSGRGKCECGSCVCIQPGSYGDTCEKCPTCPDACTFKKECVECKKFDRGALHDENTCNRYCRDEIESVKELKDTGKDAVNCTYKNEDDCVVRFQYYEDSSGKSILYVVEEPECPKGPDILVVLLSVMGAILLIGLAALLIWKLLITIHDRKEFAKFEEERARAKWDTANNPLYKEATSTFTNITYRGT
Sequence of GP IIb/IIIa (P08514 32-887 limits assumed): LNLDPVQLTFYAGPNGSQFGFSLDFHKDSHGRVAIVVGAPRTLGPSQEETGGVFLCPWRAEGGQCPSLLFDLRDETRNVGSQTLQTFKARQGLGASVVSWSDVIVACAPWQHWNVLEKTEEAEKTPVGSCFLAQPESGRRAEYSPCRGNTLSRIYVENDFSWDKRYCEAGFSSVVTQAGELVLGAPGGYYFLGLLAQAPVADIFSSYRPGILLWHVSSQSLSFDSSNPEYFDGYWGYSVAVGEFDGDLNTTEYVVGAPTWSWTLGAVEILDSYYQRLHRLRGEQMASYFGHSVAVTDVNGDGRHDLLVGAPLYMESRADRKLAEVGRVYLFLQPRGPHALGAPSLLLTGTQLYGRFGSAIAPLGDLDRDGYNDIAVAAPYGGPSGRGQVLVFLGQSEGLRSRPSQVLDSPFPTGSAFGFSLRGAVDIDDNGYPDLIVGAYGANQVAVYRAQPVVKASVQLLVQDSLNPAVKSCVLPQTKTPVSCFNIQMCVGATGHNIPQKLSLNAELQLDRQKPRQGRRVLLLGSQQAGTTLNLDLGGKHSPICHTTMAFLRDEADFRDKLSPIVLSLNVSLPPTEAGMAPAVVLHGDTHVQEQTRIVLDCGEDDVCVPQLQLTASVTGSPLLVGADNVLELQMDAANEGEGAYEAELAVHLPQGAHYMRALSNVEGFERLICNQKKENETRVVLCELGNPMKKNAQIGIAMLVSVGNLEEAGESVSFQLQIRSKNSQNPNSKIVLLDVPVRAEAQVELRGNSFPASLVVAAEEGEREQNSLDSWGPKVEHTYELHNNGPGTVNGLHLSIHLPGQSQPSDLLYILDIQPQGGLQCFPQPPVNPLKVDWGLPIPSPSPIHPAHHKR
Sequence of GP IIb/IIIa (P08514 891-1039 limits assumed): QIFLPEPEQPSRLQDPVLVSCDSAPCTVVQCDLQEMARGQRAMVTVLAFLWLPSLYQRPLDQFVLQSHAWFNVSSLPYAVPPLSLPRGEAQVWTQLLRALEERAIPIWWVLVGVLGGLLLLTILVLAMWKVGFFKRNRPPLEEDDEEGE
Sequence of GP IIb/IIIa (P05106 27-788): as the sequence (P05106 27-788) above
T2 sequence (P08648 42-894 limits assumed): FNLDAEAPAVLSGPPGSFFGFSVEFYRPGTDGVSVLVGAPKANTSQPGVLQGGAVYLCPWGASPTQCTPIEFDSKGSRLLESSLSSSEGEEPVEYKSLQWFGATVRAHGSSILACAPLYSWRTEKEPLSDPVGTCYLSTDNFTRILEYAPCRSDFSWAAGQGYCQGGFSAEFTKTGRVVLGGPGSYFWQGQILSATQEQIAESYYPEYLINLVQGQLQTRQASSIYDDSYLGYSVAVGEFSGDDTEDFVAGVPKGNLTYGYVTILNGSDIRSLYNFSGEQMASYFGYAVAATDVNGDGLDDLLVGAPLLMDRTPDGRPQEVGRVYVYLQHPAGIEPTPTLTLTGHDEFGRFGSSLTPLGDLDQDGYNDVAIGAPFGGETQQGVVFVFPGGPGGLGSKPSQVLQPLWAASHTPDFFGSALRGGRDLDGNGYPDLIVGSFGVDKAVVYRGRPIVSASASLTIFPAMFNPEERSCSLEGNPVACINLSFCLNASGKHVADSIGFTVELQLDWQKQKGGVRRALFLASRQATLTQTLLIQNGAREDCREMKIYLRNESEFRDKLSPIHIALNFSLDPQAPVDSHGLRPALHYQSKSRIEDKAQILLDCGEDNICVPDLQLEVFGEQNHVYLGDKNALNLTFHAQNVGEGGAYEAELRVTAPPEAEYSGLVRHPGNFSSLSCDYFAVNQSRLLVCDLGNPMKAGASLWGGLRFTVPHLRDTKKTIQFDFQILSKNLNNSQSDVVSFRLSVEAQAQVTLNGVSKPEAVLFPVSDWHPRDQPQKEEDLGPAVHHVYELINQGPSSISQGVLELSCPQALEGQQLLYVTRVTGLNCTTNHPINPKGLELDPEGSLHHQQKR
T2 sequence (P08648 895-1049 limits assumed): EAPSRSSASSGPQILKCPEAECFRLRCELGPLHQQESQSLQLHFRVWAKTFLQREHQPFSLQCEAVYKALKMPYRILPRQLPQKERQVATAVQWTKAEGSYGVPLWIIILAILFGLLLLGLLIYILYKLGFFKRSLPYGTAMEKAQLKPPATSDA
T2 sequence (P05556 21-798): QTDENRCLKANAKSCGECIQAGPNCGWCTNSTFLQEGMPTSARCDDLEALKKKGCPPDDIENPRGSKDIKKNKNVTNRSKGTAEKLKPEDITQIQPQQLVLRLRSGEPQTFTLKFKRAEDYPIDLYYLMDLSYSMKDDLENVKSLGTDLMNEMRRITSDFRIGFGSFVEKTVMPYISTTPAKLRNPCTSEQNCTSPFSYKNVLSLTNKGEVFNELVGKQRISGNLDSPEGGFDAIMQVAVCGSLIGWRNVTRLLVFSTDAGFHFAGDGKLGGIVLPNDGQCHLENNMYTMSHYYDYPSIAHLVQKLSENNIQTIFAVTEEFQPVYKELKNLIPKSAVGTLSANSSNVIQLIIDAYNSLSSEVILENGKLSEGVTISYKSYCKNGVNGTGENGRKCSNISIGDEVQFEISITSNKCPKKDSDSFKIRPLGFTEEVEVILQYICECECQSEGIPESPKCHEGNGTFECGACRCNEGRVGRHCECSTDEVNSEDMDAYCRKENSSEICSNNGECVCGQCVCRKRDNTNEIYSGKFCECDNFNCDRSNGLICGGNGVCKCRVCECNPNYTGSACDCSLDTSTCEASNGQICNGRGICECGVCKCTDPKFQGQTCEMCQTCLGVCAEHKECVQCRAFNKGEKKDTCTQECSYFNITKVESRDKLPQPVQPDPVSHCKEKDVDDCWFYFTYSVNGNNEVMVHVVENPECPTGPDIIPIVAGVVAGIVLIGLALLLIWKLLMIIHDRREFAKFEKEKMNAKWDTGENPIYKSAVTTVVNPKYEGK

Turning to `CN(C1=NCCCN1)C1CCN(c2ccc(C(=O)NC[C@H](NS(=O)(=O)c3ccccc3)C(=O)O)cc2)CC1` [Example 45, (2S)-Benzenesulfonylamino-3-[4-[4-[{N-methyl-N-(1,4,5,6-tetrahydropyrimidin-2-yl)}amino]-piperidin-1-yl]benzoylamino]propionic acid], the IC50 in assay [1] was ≤ 0.001 µM; in assay [2] it was ≤ 0.09 µM.

As for `CCCCS(=O)(=O)N[C@@H](CNC(=O)c1ccc(N2CCC(Nc3nc4ccccc4[nH]3)CC2)cc1)C(=O)O` [Example 28, (2S)-Butane-1-sulfonylamino-3-[4-{4-(1H-benzimidazol-2-ylamino)piperidin-1-yl}benzoylamino]-propionic acid], the IC50 is ≤ 0.001 µM in assay [3], ≤ 0.001 µM in assay [1] and 1.3 µM in assay [4].

Consider `O=C(NC[C@H](NS(=O)(=O)c1ccccc1)C(=O)O)c1ccc(N2CCC(NC3=NCCCCN3)CC2)cc1` [Example 42, (2S)-Benzenesulfonylamino-3-[4-{4-(4,5,6,7-tetrahydro-1H-[1,3]diazepin-2-ylamino)piperidin-1-yl}-benzoylamino]propionic acid], for which the IC50 in assay [3] was ≤ 0.001 µM; in assay [1], ≤ 0.001 µM; in assay [2], ≤ 0.09 µM.

As to `O=C(NC[C@H](NS(=O)(=O)c1ccccc1)C(=O)O)c1ccc(N2CCC(NC3=NCCN3)CC2)cc1` [Example 40, (2S)-Benzenesulfonylamino-3-[4-{4-(4.5-dihydro-1H-imidazol-2-ylamino)piperidin-1-yl}benzoyl-amino]propionic acid], the values for the IC50 in assay [1] and in assay [2] were ≤ 0.001 µM and ≤ 0.09 µM, respectively.

As for `O=C(NC[C@H](NS(=O)(=O)c1ccccc1)C(=O)O)c1ccc(N2CCC(Nc3nc4ccccc4[nH]3)CC2)cc1` [Example 10, (2S)-Benzenesulfonylamino-3-[4-{4-(1H-benzimidazol-2-ylamino)piperidin-1-yl}benzoylamino]-propionic acid], the IC50 in assay [4] amounted to 1.6 µM.

For `O=C(NC[C@H](NS(=O)(=O)c1ccccc1)C(=O)O)c1ccc(N2CCC(NC3=NCCN3)CC2)c(F)c1` [Example 54, (2S)-Benzenesulfonylamino-3-[3-fluoro-4-{4-(4,5-dihydro-1H-imidazol-2-ylamino)piperidin-1-yl}-benzoylamino]propionic acid], the IC50 in assay [3] is ≤ 0.001 µM; in assay [1], ≤ 0.001 µM; in assay [2] it was ≤ 0.09 µM.

Consider `Nc1ccc(S(=O)(=O)N[C@@H](CNC(=O)c2ccc(N3CCC(NC4=NCCCN4)CC3)c(F)c2)C(=O)O)cc1` [Example 68, (2S)-(4-Aminobenzenesulfonyl)amino-3-[3-fluoro-4-{4-(1,4,5,6-tetrahydropyrimidin-2-ylamino)-piperidin-1-yl}benzoylamino]propionic acid], for which the figures for the IC50 in assay [3], in assay [1] and in assay [4] were ≤ 0.001 µM, ≤ 0.001 µM and 11.5 µM, respectively.

For `O=C(N[C@@H](CNC(=O)c1ccc(N2CCC(Nc3nc4ccccc4[nH]3)CC2)cc1)C(=O)O)OCc1ccccc1` [Example 24, 3-[4-{4-(1H-Benzimidazol-2-ylamino)piperidin-1-yl}benzoylamino]-(2S)-{(benzyloxy-carbonyl)amino}propionic acid], the results for the IC50 in assay [1] and in assay [4] were ≤ 0.001 µM and 6.9 µM, respectively.

For the compound `O=C(NC[C@H](NS(=O)(=O)c1ccccc1)C(=O)O)c1ccc(N2CCC(NC3=NCCCN3)CC2)cc1` [Example 3, (2S)-Benzenesulfonylamino-3-[4-{4-(1,4,5,6-tetrahydropyrimidin-2-ylamino)piperidin-1-yl}benzoyl-amino]propionic acid], the IC50 in assay [4] was 1.6 µM.
